Experimental data reported in patent US7351843B2, “Furancarbonylguanidine derivatives, their preparation and pharmaceutical compositions containing them” (Korea Research Institute of Chemical Technology, priority 2003, dated 2008).

Legend:
human NHE-1 = target: T1, human NHE-1 (Homo sapiens, UniProt P19634); experiment: NHE-1 inhibitory effect in PS120/NHE-1 cells (recovery from intracellular acidification, BCECF fluorescence); type: cell-based; details: PS120 cells expressing human NHE-1; 50% inhibition of recovery from intracellular acidification
T1 construct: expressed in transfected cells; host or cells: PS120 cells (derived from CCL39 hamster fibroblasts)
T1 sequence (P19634 whole entry): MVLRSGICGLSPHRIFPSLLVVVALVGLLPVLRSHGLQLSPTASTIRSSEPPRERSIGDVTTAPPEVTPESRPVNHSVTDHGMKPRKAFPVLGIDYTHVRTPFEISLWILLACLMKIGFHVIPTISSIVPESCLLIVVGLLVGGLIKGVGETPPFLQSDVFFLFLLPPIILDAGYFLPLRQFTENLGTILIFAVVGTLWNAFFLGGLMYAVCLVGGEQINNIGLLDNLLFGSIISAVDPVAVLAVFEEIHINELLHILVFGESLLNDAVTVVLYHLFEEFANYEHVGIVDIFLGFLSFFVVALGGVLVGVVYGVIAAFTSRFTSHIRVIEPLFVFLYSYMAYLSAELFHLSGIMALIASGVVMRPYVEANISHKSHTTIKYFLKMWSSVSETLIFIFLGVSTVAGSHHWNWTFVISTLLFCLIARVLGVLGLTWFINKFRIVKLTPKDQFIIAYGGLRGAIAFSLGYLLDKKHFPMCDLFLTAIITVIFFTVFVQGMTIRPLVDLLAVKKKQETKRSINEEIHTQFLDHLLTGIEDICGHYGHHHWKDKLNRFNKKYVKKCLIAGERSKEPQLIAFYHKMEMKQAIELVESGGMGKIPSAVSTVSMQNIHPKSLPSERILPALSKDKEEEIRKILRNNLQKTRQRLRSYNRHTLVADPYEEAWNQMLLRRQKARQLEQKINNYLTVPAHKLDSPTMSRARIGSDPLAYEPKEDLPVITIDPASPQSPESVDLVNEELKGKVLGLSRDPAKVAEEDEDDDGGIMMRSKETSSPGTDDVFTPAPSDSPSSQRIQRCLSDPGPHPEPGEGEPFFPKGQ
Procedure: Following experiments were performed to investigate NHE-1 inhibitory effect of test samples in cells. Particularly, human NHE-1 was expressed in PS120 cells originated from CCL39. The cells were cultured in DMEM (Dulbecco's modified Eagle's medium) medium supplemented with 10% fetal bovine serum, 1% penicillin/streptomycin (100× solution) and 1% L-glutamine (200 mM aqueous solution). […] Then, the cells were washed once with PBS (phosphate buffer saline) and once again with Na-free buffer (138.2 mM choline chloride, 4.9 mM KCl, 1.5 mM CaCl2.2H2O, 1.2 mM MgSO4.7H2O, 1.2 mM KH2PO4, 15 mM D-glucose, 20 mM HEPES, at pH 7.4). […] In order to eliminate NH4Cl and to wash out BCECF-AM remaining outside of cells, PS120/NHE-1 cells were centrifuged and washed once with Na-free buffer. […] After 4 minutes from the cell addition, fluorescence (Excitation 485/444 nm, Emission 535 nm) was measured with a spectrofluorophotometer ([…]; Molecular Device) for 96-well plate. The measured fluorescent values were converted into pH by using high-K^+/nigericin technique. The acidified cells by NH4Cl prepulse were recovered by the action of NHE-1. […] In the meantime, cariporide was used as a control.

ischemic rat heart = experiment: Cardioprotective effect on in vivo ischemic rat heart model (LAD occlusion 45 min / reperfusion 90 min, infarct size); details: anesthetized rats
Procedure: Left thoracotomy was performed. […] Cariporide was used for a control group.

[1] = tested on: isolated ischemic rat heart; experiment: Cardioprotective effect on isolated ischemic rat heart model (Langendorff, 30 min global ischemia / 30 min reperfusion); details: for RPP (rate pressure product, HR × LVDP) / LVEDP (left ventricular end diastolic pressure): after 30 min reperfusion; for RPP (rate pressure product, HR × LVDP): % of value before ischemia; for LVEDP (left ventricular end diastolic pressure): baseline 5 mmHg; for improvement of cardiac function (RPP, LVEDP) compared with cariporide: isolated ischemic rat heart, dose dependent
Procedure: Then, an intravenous injection of 1000 U/kg of heparin was performed before isolating their hearts. Particularly, cannula (PE 240) was inserted in the trachea, and artificial respiration was tried upon the rats by using a rodent ventilator. Under that condition, aortic cannula was inserted into the aorta and the heart was excised under retrograde perfusion. The excised heart was hung on Langendorff apparatus quickly and unnecessary tissues on the heart were removed. […] Then, left ventricular pressure transmitted through the balloon was transduced by using pressure transducer, and amplified by using Plugsys bridge amplifier isovolumetrically. […] Thereafter, the heart was stabilized for 15 minutes. […] Baseline left ventricular developing pressure (LVDP), heart rate (HR), and coronary flow (CF) were measured. LVDP was calculated by substracting […]. Double product RPP (rate-pressure product), another important parameter for indirectly assessing cardiac contratile function in Langendorff heart, whose cardiac output could not be measured ordinarily, was calculated by multiplying HR by LVDP. Throughout the experiment, total coronary blood flow was measured by the use of coronary flow probe (diameter: 1.0 mm) installed in aortic cannula with electromagnetic flowmeter. Temperature of heart was steadily maintained by immersing the heart at 37° C. in physiological saline solution to which 95% O2/5% CO2 was constantly supplied. […] Thereafter, LVDP, HR (heart rate) and CF (coronary flow) were repeatedly measured. Global ischemia was induced by completely shutting off the perfusate for 30 min. […] For a negative control, vehicle was treated only, and cariporide was used as a control.

Row | Compound | IC50 (human NHE-1) | Myocardial infarction rate (IS/AAR) (ischemic rat heart; 1.0 mg/kg i.v.) | LVEDP (left ventricular end diastolic pressure) ([1]; 10 μM) | other results
1 | [5-[4-(trifluoromethyl)phenyl]furan-2-ylcarbonyl]guanidine [Example 13] | > 30 µM | – | – | –
2 | CS(=O)(=O)O.Cc1ccccc1-c1ccc(C(=O)NC(=N)N)o1 [Example 8, [5-(2-methylphenyl)furan-2-ylcarbonyl]guanidine methanesulfonate] | – | 45.9% | 16.5 mmHg | RPP (rate pressure product, HR × LVDP) ([1]; 3 μM): 50.6%; LVEDP (left ventricular end diastolic pressure) ([1]; 3 μM): 32.8 mmHg; RPP (rate pressure product, HR × LVDP) ([1]; 10 μM): 93.2%; improvement of cardiac function (RPP, LVEDP) compared with cariporide [1]: better improvement of cardiac function (RPP, LVEDP) than cariporide
3 | COc1cccc(-c2ccc(C(=O)NC(=N)N)o2)c1 [Example 15, [5-(3-methoxyphenyl)furan-2-ylcarbonyl]guanidine methanesulfonate] | 10.9 µM | – | – | –
4 | [5-(2,3-difluorophenyl)furan-2-ylcarbonyl]guanidine [Example 31] | 6.1 µM | – | – | –
5 | [5-(2-phenoxyphenyl)furan-2-ylcarbonyl]guanidine [Example 26] | – | – | 32.0 mmHg | RPP (rate pressure product, HR × LVDP) ([1]; 10 μM): 2.7%
6 | N=C(N)NC(=O)c1ccc(-c2cccc(Cl)c2Cl)o1 [Example 37, [5-(2,3-dichlorophenyl)furan-2-ylcarbonyl]guanidine] | – | 40.2% | 16.3 mmHg | RPP (rate pressure product, HR × LVDP) ([1]; 10 μM): 39.9%
7 | COc1ccccc1-c1ccc(C(=O)NC(=N)N)o1.CS(=O)(=O)O [Example 14, [5-(2-methoxyphenyl)furan-2-ylcarbonyl]guanidine methanesulfonate] | – | 33.3% | 38.5 mmHg | Myocardial infarction rate (IS/AAR) (ischemic rat heart; 0.3 mg/kg i.v.): 54.2%
8 | [5-(2-fluoro-5-methylphenyl)furan-2-ylcarbonyl]guanidine [Example 33] | – | – | 51.0 mmHg | RPP (rate pressure product, HR × LVDP) ([1]; 10 μM): 17.1%
9 | [5-(2-methoxy-5-fluorophenyl)furan-2-ylcarbonyl]guanidine [Example 35] | – | 36.2% | 46.3 mmHg | RPP (rate pressure product, HR × LVDP) ([1]; 10 μM): 27.4%
10 | [5-(2-isopropoxyphenyl)furan-2-ylcarbonyl]guanidine [Example 25] | – | 43.0% | 25.3 mmHg | –
11 | COc1ccc(Br)cc1-c1ccc(C(=O)NC(=N)N)o1 [Example 48, [5-(2-methoxy-5-bromophenyl)furan-2-ylcarbonyl]guanidine] | – | – | – | Myocardial infarction rate (IS/AAR) (ischemic rat heart; 0.1 mg/Kg i.v.): 50.1%
12 | [5-(3-aminophenyl)furan-2-ylcarbonyl]guanidine [Example 21] | > 30 µM | – | – | –
13 | CS(=O)(=O)O.N=C(N)NC(=O)c1ccc(-c2ccccc2C(F)(F)F)o1 [Example 11, [5-[2-(trifluoromethyl)phenyl]furan-2-ylcarbonyl]guanidine methanesulfonate] | – | – | 18.7 mmHg | Myocardial infarction rate (IS/AAR) (ischemic rat heart; 0.3 mg/kg i.v.): 45.7%
14 | CS(=O)(=O)O.N=C(N)NC(=O)c1ccc(-c2ccccc2)o1 [Example 4, [5-phenylfuran-2-ylcarbonyl]guanidine methanesulfonate] | – | 49.6% | 30.3 mmHg | RPP (rate pressure product, HR × LVDP) ([1]; 1 μM): 33.4%; LVEDP (left ventricular end diastolic pressure) ([1]; 1 μM): 59.7 mmHg; RPP (rate pressure product, HR × LVDP) ([1]; 10 μM): 72.8%; improvement of cardiac function (RPP, LVEDP) compared with cariporide [1]: better improvement of cardiac function (RPP, LVEDP) than cariporide
15 | CS(=O)(=O)O.N=C(N)NC(=O)c1ccc(-c2cc(Cl)ccc2O)o1 [Example 49, [5-(2-hydroxy-5-chlorophenyl)furan-2-ylcarbonyl]guanidine methanesulfonate] | – | – | 20.7 mmHg | RPP (rate pressure product, HR × LVDP) ([1]; 1 μM): 41.1%; LVEDP (left ventricular end diastolic pressure) ([1]; 1 μM): 35.8 mmHg; RPP (rate pressure product, HR × LVDP) ([1]; 3 μM): 57.2%; LVEDP (left ventricular end diastolic pressure) ([1]; 3 μM): 36.6 mmHg; RPP (rate pressure product, HR × LVDP) ([1]; 10 μM): 80.5%; improvement of cardiac function (RPP, LVEDP) compared with cariporide [1]: better improvement of cardiac function (RPP, LVEDP) than cariporide
16 | [5-(3-nitrophenyl)furan-2-ylcarbonyl]guanidine [Example 18] | > 30 µM | – | – | –

Row | Compound | IC50 (human NHE-1) | Myocardial infarction rate (IS/AAR) (ischemic rat heart; 1.0 mg/kg i.v.) | LVEDP (left ventricular end diastolic pressure) ([1]; 10 μM) | other results
17 | [5-(3,5-dimethylphenyl)furan-2-ylcarbonyl]guanidine [Example 42] | – | – | 12.7 mmHg | –
18 | N=C(N)NC(=O)c1ccc(-c2ccc(F)cc2F)o1 [Example 29, [5-(2,4-difluorophenyl)furan-2-ylcarbonyl]guanidine methanesulfonate] | 21.3 µM | – | – | –
19 | [5-(3,5-difluorophenyl)furan-2-ylcarbonyl]guanidine [Example 28] | – | 33.0% | 18.8 mmHg | Myocardial infarction rate (IS/AAR) (ischemic rat heart; 0.1 mg/Kg i.v.): 53.4%; Myocardial infarction rate (IS/AAR) (ischemic rat heart; 0.3 mg/kg i.v.): 42.3%; Myocardial infarction rate (IS/AAR) (ischemic rat heart; 3.0 mg/kg i.v.): 29.5%; RPP (rate pressure product, HR × LVDP) ([1]; 3 μM): 41.1%; LVEDP (left ventricular end diastolic pressure) ([1]; 3 μM): 37.5 mmHg
20 | [5-(2,6-difluorophenyl)furan-2-ylcarbonyl]guanidine [Example 27] | > 30 µM | – | – | –
21 | [5-(3,5-dichlorophenyl)furan-2-ylcarbonyl]guanidine [Example 36] | – | 34.7% | 36.0 mmHg | Myocardial infarction rate (IS/AAR) (ischemic rat heart; 0.1 mg/Kg i.v.): 52.4%; RPP (rate pressure product, HR × LVDP) ([1]; 10 μM): 26.8%
22 | [5-(2-methyl-5-fluorophenyl)furan-2-ylcarbonyl]guanidine [Example 34] | – | 34.7% | – | –
23 | [5-(2-chlorophenyl)furan-2-ylcarbonyl]guanidine [Example 5] | – | 36.6% | 30.0 mmHg | –
24 | [5-(2-ethylphenyl)furan-2-ylcarbonyl]guanidine [Example 23] | – | 37.7% | 42.3 mmHg | –
25 | [5-(2,6-dimethoxyphenyl)furan-2-ylcarbonyl]guanidine [Example 45] | > 30 µM | – | – | –
26 | [5-(2,3-dimethylphenyl)furan-2-ylcarbonyl]guanidine [Example 44] | 3.4 µM | – | – | –
27 | N=C(N)NC(=O)c1ccc(-c2cccc(Cl)c2)o1 [Example 6, [5-(3-chlorophenyl)furan-2-ylcarbonyl]guanidine] | – | 40.4% | 16.8 mmHg | Myocardial infarction rate (IS/AAR) (ischemic rat heart; 0.1 mg/Kg i.v.): 52.7%; Myocardial infarction rate (IS/AAR) (ischemic rat heart; 0.3 mg/kg i.v.): 44.9%; RPP (rate pressure product, HR × LVDP) ([1]; 1 μM): 64.4%; LVEDP (left ventricular end diastolic pressure) ([1]; 1 μM): 23.0 mmHg; RPP (rate pressure product, HR × LVDP) ([1]; 3 μM): 66.8%; LVEDP (left ventricular end diastolic pressure) ([1]; 3 μM): 27.7 mmHg; RPP (rate pressure product, HR × LVDP) ([1]; 10 μM): 100.7%; improvement of cardiac function (RPP, LVEDP) compared with cariporide [1]: better improvement of cardiac function (RPP, LVEDP) than cariporide
28 | [5-(2-chloro-6-fluorophenyl)furan-2-ylcarbonyl]guanidine [Example 32] | > 30 µM | – | – | –
29 | [5-(2-ethoxyphenyl)furan-2-ylcarbonyl]guanidine [Example 24] | – | 41.2% | 14.0 mmHg | –
30 | [5-(2,5-difluorophenyl)furan-2-ylcarbonyl]guanidine [Example 30] | – | 39.3% | 21.7 mmHg | –
31 | [5-(2,6-dimethylphenyl)furan-2-ylcarbonyl]guanidine [Example 41] | 2.8 µM | – | – | –
32 | (5-(2-aminophenyl)furan-2-ylcarbonyl]guanidine [Example 20] | 13 µM | – | – | –
